# Results from patent US8080522B2, “Polyethlene glycol modifications of thymosin alpha-1” (Institute of Pharmacology and Toxicology Academy of …, priority 2005, dated 2011).
# Like-named read-outs stand apart in the source and are kept apart here. Where no end group is shown, it is not given here.
# Columns and labels:
# [1] = Plasma concentration / pharmacokinetics in mouse (competitive ELISA); type: in vivo; settings: 300 μg per mouse, injected peritoneally, parameters in 24 h
# Protocol: Coating antigen: Dilute Tα1 detection antigen stock solution to a final concentration of 2 μg/mL with coating solution, and add it into the wells of ELISA plate for 0.1 mL per well, and incubate at 4° C. for 5 days. Then wash the ELISA plate 3 times with washing buffer, each 0.2 mL/well and 3 min/time. Add 0.2 mL blocking buffer to each well, incubate for 1.5 hours at 37° C., wash plate 2 times by washing buffer, and spin dried.
# Sample preparation: Weight sample accurately, dissolve it in saline to a concentration of 1.5 mg/mL. Administrate 0.2 Ml by injection to each mouse peritoneally. Collect blood sample in 3 min, 20 min, 40 min, 1 h, 2 h, 3 h, 6 h, 8 h, 12 h, and 24 h. Collect serum by centrifuge the blood samples for 5 minutes at 10000 rpm, stored at −20° C. in a freezer. o prepare test sample, […] was added by 0.1 mL 1:1500 rabbit anti-Tα1 serum (final concentration is 1:6000), and 0.2 mL CD-1® mouse serum, and […]. Prepare blank control at the same time. Total volume is 0.4 mL. Incubate for 2 hours at 37° C. To prepare standard sample, Tα1 0.1 mL with different concentrations from 0.0004 to 400 μg/mL was added by 0.1 mL 1:1500 rabbit anti-Tα1 serum (final concentration is 1:6000), and 0.2 mL CD-1® mouse serum. Prepare blank control at the same time. Total volume is 0.4 mL. Incubate for 2 hours at 37° C.
# Sample Testing Add the prepared test sample and standard sample to ELISA plate, 0.1 mL/well, reacting for 1 hour in 37° C. chamber. Wash the plates 3 times, spin dryed. Add substrate 0.1 mL/well for 10 minutes. Add 2 mol/L H2SO4 0.05 mL to each well to terminate the reaction. Measure the OD value at 450 nm. Plot the standard curve with the concentration of Tα1 standard sample as abscissa and OD value as vertical coordinate. Calculate the content of test sample according to this standard curve.
# [2] = test system: spleen cell; assay: Interferon-γ production of spleen cells stimulated by Con A (double antibody sandwich ELISA); type: cell-based; settings: for Concentration of IFN-γ: Con A 0.5 μg/mL, 24 hours, n = 3; for Enhancement percentage: versus Con A alone
# Protocol: Prepare spleen cell suspension in sterile condition. Adjust cell concentration to 5×10^6 cell/mL by adding RPMI-1640 culture with 20% bovine serum. Add 0.5 mL cell suspension, 0.25 mL Con A (final concentration is 0.5 μg/mL) and 0.25 mL samples with different concentrations in 24-well plate; and add RPMI-1640 culture in control wells. Incubate the plates in a 5% CO2 chamber at 37° C. for 24 hours. Centrifuge and collect supernatant, test the content of IFN-γ in supernatant by double antibody sandwich ELISA. The protocol is according to the instruction on ELISA kit.
# [3] = Half-life in liver homogenate (HPLC); type: in vitro ADME; settings: 37° C., sample 0.4 mg/mL or 0.8 mg/mL; for half-life: read-out: t1/2 in liver homogenate (converted)
# Protocol: Experimental method: Prepare 0.4 mg/mL or 0.8 mg/mL sample aqueous solution in centrifuge tube, adding 50 μL liver homogenate. Then incubate for different time in 37° C. water bath. Terminate the reaction and precipitate liver homogenate protein by heating the mixture in boiling water for 5 minutes. Centrifuge it (10000 rpm) for 10 minutes. Analyze the supernatant by HPLC. The data was statistically analyzed by Origin Prof. 5.0.
# HPLC: Column temperature: 25° C.; Flow rate 1.0 mL/min; Detection wavelength: 200 nm; Mobile phase A: 0.1% TFA/H2O; Mobile phase B: 0.1% TFA/70% CH3CN.
# [4] = test system: T lymphocyte (spleen cell); assay: T lymphocyte proliferation stimulated by Con A (3H-TdR incorporation); type: cell-based, mouse; settings: for 3H-TdR incorporation (cpm, x ± SD): Con A 0.5 μg/mL, 72 hours, n = 4; for Enhancement percentage: versus Con A alone
# Protocol: Sacrifice mouse by draining artery blood, remove spleen in sterile condition, and make it to spleen cell suspension. After red blood cell lysis, wash for 3 times, and stain with Trypan Blue to count the living cells. The amount of living cells should be more than 95%. Dilute the cell concentration to 5×10^6 cell/mL by adding RPMI-1640 culture with 10% bovine serum. Add spleen cell suspension to a sterilized 96-well plate for 100 μL per well. The total amount is 200 μL per well (including 50 μL Con A and 50 μL medicament). Each sample concentration is repeated fro 3-4 wells. Incubate the plate in a 5% CO2 chamber for 72 hours, add 10 μci/mL ^3H-TdR 20 μL per well 16 hours before termination of the incubation, giving rise to a final concentration of 1.0 μci (37.0 KBq)/mL. Collect cells on filter membrane by using Herveste 96 cell harvester, dried in 80° C. oven for 20 minutes or dried in air. Put the dried filter membrane into 1450-423 microBeta sample bag, add scintillation liquid, and measure radioactivity (cpm) in Perkin Elmer MicroBeta Trilux 1450 Scintillation Counter.
# [5] = serum, ip, 300 ug/animal, n = 3, read-out: Cmax
# [6] = serum, ip, 300 ug/animal, n = 3, read-out: Tmax
substance,measurement,setting,value
Ac-CSDAAVDTSSEITTKDLKEKKEVVEEAEN-OH [BMJBT008],AUC,[1]; n = 3,1210 ng·h/mL
same,Cmax,[1]; [5],430 ng/mL
same,Tmax,[1]; [6],0.333 h
same,Concentration of IFN-γ,"[2]; Table 1-3, sample 1 μg/mL",4323.8 ± 187.0 pg/mL
same,Enhancement percentage,"[2]; Table 1-3, sample 1 μg/mL",+41.6%
same,Concentration of IFN-γ,"[2]; Table 1-3, sample 10 μg/mL",3115.0 ± 195.8 pg/mL
same,Enhancement percentage,"[2]; Table 1-3, sample 10 μg/mL",+2.0%
same,Concentration of IFN-γ,"[2]; Table 1-3, sample 100 μg/mL",2975.5 ± 182.6 pg/mL
same,Enhancement percentage,"[2]; Table 1-3, sample 100 μg/mL",−2.6%
same,half-life,[3],< 1 h
Ac-SDAAVDTSSEITTKDLKEKKEVVCEAEN-OH [BMJBT007],AUC,[1]; n = 3,17900 ng·h/mL
same,Cmax,[1]; [5],5990 ng/mL
same,Tmax,[1]; [6],0.333 h
same,half-life,[3],0.5 h
"Ac-[Cys^5(mPEG5000-MAL)]Tα1 (Ac-SDAAC(mPEG5000‑maleimide)DTSSEITTKDLKEKKEVVEEAEN; UniProt P06454 2-29, looked up, variant V5C) [BMJB005]",t1/2 in liver homogenate,[3],250.0 h
"Ac-[Cys^8(mPEG5000-MAL)]Tα1 (Ac-SDAAVDTC(mPEG5000‑maleimide)SEITTKDLKEKKEVVEEAEN; UniProt P06454 2-29, looked up, variant S8C) [BMJB008]",t1/2 in liver homogenate,[3],65.2 h
"Ac-[Cys^16(mPEG5000-MAL)]Tα1 (Ac-SDAAVDTSSEITTKDC(mPEG5000‑maleimide)KEKKEVVEEAEN; UniProt P06454 2-29, looked up, variant L16C) [BMJB016]",AUC,[1]; n = 3,120000 ng·h/mL
same,Cmax,[1]; n = 3,6289 ng/mL
same,Tmax,[1]; n = 3,6.000 h
same,Concentration of IFN-γ,"[2]; Table 1-1, sample 1 μg/mL",1426.8 ± 36.8 pg/mL
same,Enhancement percentage,"[2]; Table 1-1, sample 1 μg/mL",+89.8%
same,Concentration of IFN-γ,"[2]; Table 1-1, sample 10 μg/mL",1295.7 ± 165.9 pg/mL
same,Enhancement percentage,"[2]; Table 1-1, sample 10 μg/mL",+72.4%
same,Concentration of IFN-γ,"[2]; Table 1-1, sample 100 μg/mL",455.5 ± 79.3**↓ pg/mL
same,Enhancement percentage,"[2]; Table 1-1, sample 100 μg/mL",−39.4%
same,"3H-TdR incorporation (cpm, x ± SD)","[4]; Table 2-1, sample 10 μg/mL",21697 ± 3489 cpm
same,Enhancement percentage,"[4]; Table 2-1, sample 10 μg/mL",+60.9%
same,"3H-TdR incorporation (cpm, x ± SD)","[4]; Table 2-1, sample 50 μg/mL",22584 ± 1463 cpm
same,Enhancement percentage,"[4]; Table 2-1, sample 50 μg/mL",+67.4%
same,"3H-TdR incorporation (cpm, x ± SD)","[4]; Table 2-1, sample 100 μg/mL",20708 ± 1211 cpm
same,Enhancement percentage,"[4]; Table 2-1, sample 100 μg/mL",+53.5%
"Ac-[Cys^17(mPEG5000-MAL)]Tα1 (Ac-SDAAVDTSSEITTKDLC(mPEG5000‑maleimide)EKKEVVEEAEN; UniProt P06454 2-29, looked up, variant K17C) [BMJB017]",AUC,[1]; n = 3,83500 ng·h/mL
same,Cmax,[1]; n = 3,11980 ng/mL
same,Tmax,[1]; n = 3,1.000 h
same,Concentration of IFN-γ,"[2]; Table 1-1, sample 1 μg/mL",1048.9 ± 181.4 pg/mL
same,Enhancement percentage,"[2]; Table 1-1, sample 1 μg/mL",+39.5%
same,Concentration of IFN-γ,"[2]; Table 1-1, sample 10 μg/mL",856.4 ± 61.8 pg/mL
same,Enhancement percentage,"[2]; Table 1-1, sample 10 μg/mL",+13.9%
same,Concentration of IFN-γ,"[2]; Table 1-1, sample 100 μg/mL",474.7 ± 10.2**↓ pg/mL
same,Enhancement percentage,"[2]; Table 1-1, sample 100 μg/mL",−36.9%
same,"3H-TdR incorporation (cpm, x ± SD)","[4]; Table 2-1, sample 10 μg/mL",18919 ± 3507 cpm
same,Enhancement percentage,"[4]; Table 2-1, sample 10 μg/mL",+40.3%
same,"3H-TdR incorporation (cpm, x ± SD)","[4]; Table 2-1, sample 50 μg/mL",21091 ± 3916 cpm
same,Enhancement percentage,"[4]; Table 2-1, sample 50 μg/mL",+56.4%
same,"3H-TdR incorporation (cpm, x ± SD)","[4]; Table 2-1, sample 100 μg/mL",16778 ± 2483 cpm
same,Enhancement percentage,"[4]; Table 2-1, sample 100 μg/mL",+24.4%
"BMJB012: PEG modification of Tα1, listed after BMJBT001 in Tables 1-2 and 2-2 (SDAAVDTSSEITTKDLKEKKEVVEEAEN; not fully specified; ends and bridges not checked; also: PEG conjugate, site not given here; UniProt P06454 2-29, looked up)",AUC,[1]; n = 3,8150 ng·h/mL
same,Cmax,[1]; n = 3,348 ng/mL
same,Tmax,[1]; n = 3,12.000 h
same,Concentration of IFN-γ,"[2]; Table 1-2, sample 1 μg/mL",4224.7 ± 183.1 pg/mL
same,Enhancement percentage,"[2]; Table 1-2, sample 1 μg/mL",+29.7%
same,Concentration of IFN-γ,"[2]; Table 1-2, sample 10 μg/mL",3115.3 ± 377.1 pg/mL
same,Enhancement percentage,"[2]; Table 1-2, sample 10 μg/mL",−4.4%
same,Concentration of IFN-γ,"[2]; Table 1-2, sample 100 μg/mL",3277.7 ± 181.0 pg/mL
same,Enhancement percentage,"[2]; Table 1-2, sample 100 μg/mL",+0.6%
same,"3H-TdR incorporation (cpm, x ± SD)","[4]; Table 2-2, sample 10 μg/mL",22772 ± 3222 cpm
same,Enhancement percentage,"[4]; Table 2-2, sample 10 μg/mL",+95.6%
same,"3H-TdR incorporation (cpm, x ± SD)","[4]; Table 2-2, sample 50 μg/mL",24066 ± 4004 cpm
same,Enhancement percentage,"[4]; Table 2-2, sample 50 μg/mL",+106.7%
same,"3H-TdR incorporation (cpm, x ± SD)","[4]; Table 2-2, sample 100 μg/mL",25176 ± 3656 cpm
same,Enhancement percentage,"[4]; Table 2-2, sample 100 μg/mL",+116.3%
"BMJB015: PEG modification of Tα1, listed after BMJBT004 in Table 1-2 (SDAAVDTSSEITTKDLKEKKEVVEEAEN; ends and bridges not checked; also: PEG conjugate, site not given here; UniProt P06454 2-29, looked up)",AUC,[1]; n = 3,106000 ng·h/mL
same,Cmax,[1]; n = 3,5082 ng/mL
same,Tmax,[1]; n = 3,3.000 h
same,Concentration of IFN-γ,"[2]; Table 1-2, sample 1 μg/mL",3908.2 ± 147.2 pg/mL
same,Enhancement percentage,"[2]; Table 1-2, sample 1 μg/mL",+20.0%
same,Concentration of IFN-γ,"[2]; Table 1-2, sample 10 μg/mL",3962.9 ± 137.6 pg/mL
same,Enhancement percentage,"[2]; Table 1-2, sample 10 μg/mL",+21.6%
same,Concentration of IFN-γ,"[2]; Table 1-2, sample 100 μg/mL",3526.2 ± 68.0 pg/mL
same,Enhancement percentage,"[2]; Table 1-2, sample 100 μg/mL",+8.2%
"BMJB020: PEG modification of Tα1 (SDAAVDTSSEITTKDLKEKKEVVEEAEN; ends and bridges not checked; also: PEG conjugate, site not given here; UniProt P06454 2-29, looked up)",AUC,[1]; n = 3,4080 ng·h/mL
same,Cmax,[1]; n = 3,172 ng/mL
same,Tmax,[1]; n = 3,12.000 h
same,Concentration of IFN-γ,"[2]; Table 1-3, sample 1 μg/mL",3998.3 ± 157.7 pg/mL
same,Enhancement percentage,"[2]; Table 1-3, sample 1 μg/mL",+30.9%
same,Concentration of IFN-γ,"[2]; Table 1-3, sample 10 μg/mL",2654.0 ± 211.1 pg/mL
same,Enhancement percentage,"[2]; Table 1-3, sample 10 μg/mL",−13.1%
same,Concentration of IFN-γ,"[2]; Table 1-3, sample 100 μg/mL",3135.8 ± 195.4 pg/mL
same,Enhancement percentage,"[2]; Table 1-3, sample 100 μg/mL",+2.7%
